How the values were obtained:
TGR12 = tested on: TGR12; parameters: species or system human; conditions: CHO-TGR12GFP, 200 pM [125I]-rCST14 (Y0), 4° C. 2 hours; read-out: IC50 (competitive binding, Hill plot analysis)
Method: [^125I]-Labeled rat cortistatin-14 (Tyr0) (hereinafter [^125I]-rCST14 (Y0)) used for the competitive binding assay was prepared as follows. After 3 nmol/6 μL of rCST14 (Y0) (Funakoshi Co.), 6 μL of 10 μg/mL lactoperoxidase (in 0.1M HEPES (pH 7, 4)), 6 μL of 0.001% H2O2 and 6 μL of 37 MBq NaI (6 μL of 15 mg/100 mL NaI was used in cold run) were mixed, the mixture was reacted at room temperature for 20 minutes. […] For fractionation, TSKgel ODS-80™ was used, 10% MeCN/0.1% TFA was used as eluant A and 60% MeCN/0.1% TFA was used as eluant B at a gradient of 0-25 (2 mins.), 25-27.5 (3 mins.) and 27.5-35 (60 mins.), respectively; and the flow rate was 1 mL/min.
CHO/dhfr^− cells (hereinafter CHO) were incubated in α-MEM (Invitrogen) supplemented with 10% fetal calf serum. […]
The binding assay using CHO-TGR12GFP was performed as follows. […] After washing 3 times with 500 μL of the assay buffer, the cells were lysed in 250 μL of 0.5N NaOH and the lysate was recovered for measurement of the radioactivity.

[1] = tested on: human mast cell line LAD 2; assay: Expression of TNF-α, CCL-2 or CCL-5 mRNA in LAD 2 (TaqMan PCR); type: cell-based; conditions: various TGR12 ligands experiment, 1 μM, two hours after stimulation
Method: Human mast cell line LAD 2 was cultured in StemPro-34 medium (Invitrogen) supplemented with 100 ng/mL of stem cell factor (Immuno-Biological Laboratories Co., Ltd.). […] A 750 μL aliquot was inoculated on a 24-well plate, which was then allowed to stand in a CO2 incubator at 37° C. for 30 minutes. […] The assay was performed for the respective reaction conditions in n=3. The plate was ice-chilled 0.5, 2, 8 and 24 hours after to stop the activation of LAD 2. After centrifugation at 300×g for 5 minutes, total RNA was extracted from the precipitated cells using RNeasy Mini Kit (Qiagen) according to the protocol attached. Further in the experiments where expression levels upon stimulation by various TGR12 ligands were analyzed, LAD 2 was centrifuged at 300×g for 5 minutes and the cells precipitated were counted and suspended in the medium at 1.33×10^6 cells/mL. A 750 μL aliquot was inoculated on a 24-well plate, which was allowed to stand in a CO2 incubator at 37° C. for 30 minutes. […] The assay was performed for the respective reaction conditions in n=3. Two hours after, the plate was ice-chilled to stop the activation of LAD 2. After centrifugation at 300×g for 5 minutes, total RNA was extracted from the precipitated cells using RNeasy Mini Kit (Qiagen) according to the protocol attached. The total RNA obtained as described above was concentrated using ethachinmate according to the protocol attached and dissolved in RNase-free H2O, Next, using the solution corresponding to […] of total RNA, reverse transcription was performed by the following procedure using SuperScript II reverse transcriptase (Invitrogen) to synthesize single stranded cDNA. To the total RNA solution, 0.1 μg of random primer (Invitrogen) and 1 μL of 10 mM dNTP (Invitrogen) were added and then RNase-free H2O was added to make the whole volume 12 μL. The mixture was then incubated at 70° C. for 10 minutes and ice-cooled for a minute. After 4 μL of 5× First-Strand Buffer (attached to SuperScript II reverse transcriptase), 2 μL of 0.1M DTT (attached to SuperScript II reverse transcriptase), 1 μL of RNaseOUT (Invitrogen) and 1 μL of SuperScript II reverse transcriptase were added, the mixture was incubated at 42° C. for 50 minutes, then at 70° C. for 15 minutes and ice-cooled for 5 minutes. The thus obtained cDNA was purified using ethachinmate in accordance with the protocol attached and dissolved in Tris-EDTA buffer (Fluka).
In TaqMan PCR below, hTNFalpha-tF (SEQ ID NO: 33) and hTNFalpha-tR (SEQ ID NO: 34) were used as primers for human TNF-α quantification, hTNFalpha-tP (SEQ ID NO: 35) as a probe and hTNFalpha-standard (SEQ ID NO: 36) as a standard. For human CCL-5 quantification, hCCL5-tF (SEQ ID NO: 37) and hCCL5-tR (SEQ ID NO: 38) were used as primers, hCCL5-tP (SEQ ID NO: 39) as a probe and hCCL5 standard (SEQ ID NO: 40) as a standard. For human CCL-2 quantification, hCCL2-tF (SEQ ID NO: 41) and hCCL2-tR (SEQ ID NO: 42) were used as primers, hCCL2-tP (SEQ ID NO: 43) as a probe and hCCL2 standard (SEQ ID NO: 44) as a standard.
TaqMan PCR was performed in n=2 for each sample in a liquid volume of 15 μl using 12.5 ng of total RNA as a template. The reaction solution was composed of 900 nM primer, 250 nM probe and ½ volume of TaqMan Universal PCR Master Mix (Applied Biosystems). The reaction and analysis were performed by ABI PRISM 7900HT Sequence Detection System (Applied Biosystems). After keeping warm at 50° C. for 2 minutes and then at 95° C. for 10 minutes, the reaction cycle was set in one cycle to include 95° C. for 15 seconds and 60° C. for 1 minute and repeating the cycle 40 times.

Compound | IC50 (TGR12) [nM] | expression level of CCL-2 in LAD 2 [1] [copies] | expression level of CCL-5 in LAD 2 [1] [copies] | expression level of TNF-α in LAD 2 [1] [copies]
CC[C@H](C)[C@H](NC(=O)CNC(=O)[C@H](CC(=O)O)NC(=O)[C@H](CO)NC(=O)[C@@H](N)Cc1c[nH]cn1)C(=O)N[C@@H](Cc1ccccc1)C(=O)N[C@H](C(=O)N[C@@H](CC(=O)O)C(=O)N[C@@H](CO)C(=O)N[C@@H](Cc1ccc(O)cc1)C(=O)N[C@@H](CO)C(=O)N[C@@H](CCCNC(=N)N)C(=O)N[C@@H](Cc1ccc(O)cc1)C(=O)N[C@@H](CCCNC(=N)N)C(=O)N[C@@H](CCCCN)C(=O)N[C@@H](CCC(N)=O)C(=O)N[C@@H](CCSC)C(=O)N[C@@H](C)C(=O)N[C@H](C(=O)N[C@@H](CCCCN)C(=O)N[C@@H](CCCCN)C(=O)N[C@@H](Cc1ccc(O)cc1)C(=O)N[C@@H](CC(C)C)C(=O)N[C@@H](C)C(=O)N[C@@H](C)C(=O)N[C@H](C(=O)N[C@@H](CC(C)C)C(N)=O)C(C)C)C(C)C)[C@@H](C)O [PACAP-27] | 264 | 3809873 | 48242 | 219597
CC(C)C[C@H](NC(=O)[C@H](C)NC(=O)[C@H](Cc1c[nH]c2ccccc12)NC(=O)[C@H](CCCCN)NC(=O)[C@H](CC(N)=O)NC(=O)[C@H](Cc1c[nH]c2ccccc12)NC(=O)[C@H](CCCCN)NC(=O)[C@H](CCCCN)NC(=O)[C@H](CCCNC(=N)N)NC(=O)[C@@H](N)Cc1ccccc1)C(=O)N[C@@H](CO)C(=O)N[C@@H](CCCNC(=N)N)C(N)=O [PAMP-12, proadrenomedullin N-terminal 20 peptide (9-20)] | – | 1143248 | 34566 | 8918
CC[C@H](C)[C@H](NC(=O)[C@H](CO)NC(=O)[C@H](CC(N)=O)NC(=O)[C@H](CC(C)C)NC(=O)[C@H](Cc1ccc(O)cc1)NC(=O)[C@H](CCCCN)NC(=O)[C@H](CCCCN)NC(=O)[C@@H](NC(=O)[C@H](C)NC(=O)[C@H](CCSC)NC(=O)[C@H](CCC(N)=O)NC(=O)[C@H](CCCCN)NC(=O)[C@H](CCCNC(=N)N)NC(=O)[C@H](CC(C)C)NC(=O)[C@H](CCCNC(=N)N)NC(=O)[C@@H](NC(=O)[C@H](Cc1ccc(O)cc1)NC(=O)[C@H](CC(N)=O)NC(=O)[C@H](CC(=O)O)NC(=O)[C@@H](NC(=O)[C@H](Cc1ccccc1)NC(=O)[C@@H](NC(=O)[C@H](C)NC(=O)[C@H](CC(=O)O)NC(=O)[C@H](CO)NC(=O)[C@@H](N)Cc1c[nH]cn1)C(C)C)[C@@H](C)O)[C@@H](C)O)C(C)C)C(=O)N[C@@H](CC(C)C)C(=O)N[C@@H](CC(N)=O)C(N)=O [VIP, vasoactive intestinal polypeptide] | 2040 | 3630286 | 45015 | 176630
CSCC[C@H](NC(=O)[C@H](CCCNC(=N)N)NC(=O)[C@@H](N)CC(=O)O)C(=O)N1CCC[C@H]1C(=O)N[C@H]1CSSC[C@@H](C(=O)N[C@@H](CCCCN)C(=O)O)NC(=O)[C@H](CO)NC(=O)[C@H](CO)NC(=O)[C@H](Cc2ccccc2)NC(=O)[C@H]([C@@H](C)O)NC(=O)[C@H](CCCCN)NC(=O)[C@H](Cc2c[nH]c3ccccc23)NC(=O)[C@H](Cc2ccccc2)NC(=O)[C@H](Cc2ccccc2)NC(=O)[C@H](CC(N)=O)NC(=O)[C@H](CCCNC(=N)N)NC1=O [cortistatin-17] | – | 2944622 | 47322 | 163551
